Patent publication US20020164581A1 (priority 2001, published 2002)
“And” between values parts separate entries of the source, which are not always exact repeats. Identical values can stand only once. Like-named read-outs stand apart in the source and are kept apart here.

Assays:
[1] = tested on: bovine aortic endothelial cells (bAECs)
Method: Primary cultures of bAECs were established from five female beef cattle (ranging in age from 1 to 2 years old) according to the method of Fenselau and Mello (Cancer Res. 36:3269-3273, 1976). Pooled cells were routinely maintained under humidified air (5% CO2) at 37° C. in Dulbecco's modified medium supplemented with 10% fetal bovine serum (FBS). Cells from the second to the fifth passages were used in these studies.
In the studies in which male and female bAECs were compared, batches of bAECs were independently established from 5 female and 4 male beef cattle (ranging in age from 1 to 2 years old) according to the method of Fenselau and Mello (Cancer Res. 36:3269-3273, 1976). Otherwise, the cells were treated and assessed as described in the paragraph above.
(§1) Prior to E2 pretreatment, cells were grown in phenol red-free DMEM supplemented with 10% dextran/charcoal-stripped FBS for at least 1 passage (3-4 days). Phenol red-free Dulbecco's modified medium was used to avoid potential estrogenic interference. Serum steroid deprivation was conducted according to the conditions described by Yeh et al. (Proc. Natl. Acad. Sci. USA 95:5527-5532, 1998). The E2 level in the stripped serum was assayed using an [^125I] 17β-estradiol radioimmunoassay kit (TKE21, Diagnostic Products Corporation, Los Angeles, Calif.). […] The cells grown in E2-free environments were plated onto Falcon 24-well Primariae™ plates at a density of 5×10^4 cells/well. E2 in dimethylsulfoxide (DMSO) was added to each well at final concentrations ranging from 1 nM to 10 μM 3 hours after plating, and the cells were then incubated for 24 hours (a duration commonly used for the studies of the genomic effects of E2) at 37° C. Control cells were treated with a corresponding amount of DMSO (a final concentration 0.05%).
Prior to oxidative challenge, E2-containing media was removed, and the cells were rinsed with PBS twice and re-fed with serum-free fresh medium. Subsequently, paraquat was added to the cells at the indicated doses (0.1-2.0 mM) for 3 hours. The oxidative challenge was terminated by aspiration of the oxidant-containing medium and quickly rinsing the cells twice with PBS. The cells were allowed to recover for 48 hours in medium supplemented with 10% regular FBS to exclude the possibility that different concentrations of E2 interfere with the cellular recovery processes.
Cell survival after oxidative challenge was assessed with a 3-(4,5-dimethylthiazol-2-yl) 2,5 diphenyltetrazolium bromide (MTT) assay in which the mitochondrial dehydrogenase activity of viable cells reduces MTT to a blue formazan product (Carmichael et al. Cancer Res. 47:936-942, 1987). Our prior conditions were employed (Si et al., Endocrine in press, 2001). Briefly, cells were treated with 1/10 volume of MTT solution (5 mg/ml in PBS) and incubated at 37° C. for 2 hours. The supernatant was then removed, and 600 μl of lysis buffer (50% dimethyl formamide, 5% sodium dodecyl sulphate, 0.35 M acetic acid, 50 mM HCl) was added to each well. Following cell lysis, the absorbency was measured at 570 nm and used as an indicator of relative cell survival. The surviving fraction was calculated as compared to the cells without paraquat challenge.
Two experimental groups were created. In the first group, E2 was added only during the 24-hour pretreatment period. In the second group, E2 was added only during the 3-hour paraquat exposure.

[2] = tested on: endothelial nitric oxide synthase; conditions: cited from earlier work
[3] = tested on: bovine aortic endothelial cells (bAECs); remark: listed apart in the source
Method: as §1
To study the difference between male and female cells in their response to E2, bAECs from male and female animals were treated with various concentrations of E2 for 24 hours and then challenged with paraquat (1,1′-dimethyl-4,4′-bipyridinium dichloride, methyl viologen). Paraquat was used because it generates the superoxide anion O2 in living cells. […] Accordingly, E2 ranging in concentration from 1 nM to 10 μM was used in these studies.

LDL = conditions: 5-50 μM; oxidation by copper ions, monocytes, or endothelial cells; cited from earlier work
female and male bAECs = type: cell-based, bovine; conditions: for mean DCFH fluorescence: separate set of donors, 45-minute paraquat exposure
Method: For flow cytometric analysis (after E2 treatment), female and male bAECs were trypsinized, rinsed, and resuspended in PBS containing 2% BSA at a density of 5×10^5 cells/ml. The cells were loaded with dichlorofluorescin diacetate (Molecular Probes, Eugene, Oreg.) (dissolved in DMSO) at 5 μg/ml for 15 minutes followed by paraquat insult (1 mM) at room temperature in the dark. At the designated times, aliquots were withdrawn, placed on ice, and the fluorescence of oxidized DCFH was analyzed by a FACSCalibur™ flow cytometer (Becton-Dickinson, San Jose, Calif.) equipped with an argon laser. A collection filter for the green emission of oxidized DCFH (530/30 nm) was used. Fluorescence signal was collected in log mode and analyzed using Cellquest™ software (Becton-Dickinson).
SOD can dismutate the superoxide radical to hydrogen peroxide, which is subsequently detoxified by CAT or GPX. […] This theory was tested by comparing the level of ROS in female and male bAECs during subsequent oxidant exposure. Following E2 treatment for 24 hours, cells were loaded with dichlorofluorescein diacetate, which penetrates their plasma membranes and is converted to 2′,7′-dichlorofluorescein (DCFH) by intracellular esterases. This nonfluorescent compound, once oxidized by ROS such as hydrogen peroxide, turns to a highly fluorescent derivative.

[4] = 24 h pretreatment, paraquat challenge

## C[C@]12CC[C@@H]3c4ccc(O)cc4CC[C@H]3[C@@H]1CC[C@@H]2O [E2, 17β-estradiol]
[1]
  E2 dosage that defended cells when present during oxidative challenge: 10 µM
  oxidant protection with E2 present during paraquat exposure: mild but notable oxidant protection
  oxidative protection after brief preincubation: not effective in providing oxidative protection
  oxidative resistance (MTT survival): marked augmentation of oxidative resistance
  protection against subsequent oxidative challenge: acquired significant protection against subsequent oxidative challenge
  resistance to paraquat toxicity (cell survival): enhanced resistance to the toxic effect of paraquat
[1]; [4]
  E2 concentration of optimal protection: 1 to 10 nM
  E2 dosage at which protection gradually declined in magnitude: about 1 μM
[1]; E2 30 minutes only, washed, male or female endothelial cells
  protection after brief estrogenic exposure: No protection by E2
[1]; cells pretreated with 1 nM E2 for 24 h
  LD50 of paraquat toxicity in E2-pretreated cells: about 1 mM
[1]; female bAECs, E2 0.1-10 μM, P<0.05 vs. 1 nM
  magnitude of protection at elevated E2: gradually decreased
[1]; male bAECs, E2 pretreatment at any tested concentration
  protection against paraquat challenge: no protection was seen
[2]
  optimal concentration of E2 for endothelial nitric oxide synthase induction: 1 to 10 nM
[3]; both, bovine, 24 h
  E2 concentration that suppressed growth: ≥ 100 µM
[3]; female, bovine, 24 h
  E2 concentration that significantly inhibited endothelial cell growth: ≥ 100 µM
[3]; groups pretreated with various doses of E2, comparable among groups, average
  cell count without subsequent paraquat exposure: 3.1×10^5 per well
LDL
  effect on LDL oxidation: inhibit LDL oxidation
Female and male bAECs
  mean fluorescence intensity of oxidized DCFH: 795 and 1323
Female and male bAECs; E2-pretreated cells, before paraquat
  basal level of DCFH oxidation, female vs male: similar
Female and male bAECs; female bAECs
  mean DCFH fluorescence: 1002
Female and male bAECs; male bAECs
  mean DCFH fluorescence: 1581
